Reference: PMC12894115, “Discovery and Functional Characterization of SnFDHal, an Efficient Tryptophan 5-Halogenase from Streptomyces noursei” (Applied Biochemistry and Biotechnology, 2025)

What follows are molecules tested on T1, SnFDHal (assay: HPLC chlorination assay, Michaelis-Menten fit). Details: NADH, FAD, E. coli Fre reductase (FADH2 regeneration), NaCl; 100 mM phosphate pH 6.0, 35 °C, 30 min.
T1 construct: full-length 1,551 bp gene (about 516 residues) cloned from genomic DNA, pET28a NdeI/XhoI, His6-tagged, E. coli BL21(DE3), Ni-NTA; residues F49, K75, I78, H92, F94, Q187, E359, S460
Type: biochemical, Streptomyces noursei
From the text: HPLC chlorination assay, Michaelis-Menten fit on SnFDHal
For `N[C@@H](Cc1c[nH]c2ccccc12)C(=O)O` [L-Trp, L-tryptophan], the Km was 622 µM.
Work on `N[C@@H](Cc1c[nH]c2c(Cl)cccc12)C(=O)O` [7-Cl-Trp, 7-chlorotryptophan] yielded a Km of 172 µM.
`N[C@@H](Cc1c[nH]c2cc(Cl)ccc12)C(=O)O` [6-Cl-Trp, 6-chlorotryptophan] gave a Km of 945 µM.
